Measurements: publication PMC4038709 (Bioorganic & medicinal chemistry, 2014)

Target: T1, SET7 (Homo sapiens, UniProt Q8WTS6)
T1 sequence (Q8WTS6 52-366): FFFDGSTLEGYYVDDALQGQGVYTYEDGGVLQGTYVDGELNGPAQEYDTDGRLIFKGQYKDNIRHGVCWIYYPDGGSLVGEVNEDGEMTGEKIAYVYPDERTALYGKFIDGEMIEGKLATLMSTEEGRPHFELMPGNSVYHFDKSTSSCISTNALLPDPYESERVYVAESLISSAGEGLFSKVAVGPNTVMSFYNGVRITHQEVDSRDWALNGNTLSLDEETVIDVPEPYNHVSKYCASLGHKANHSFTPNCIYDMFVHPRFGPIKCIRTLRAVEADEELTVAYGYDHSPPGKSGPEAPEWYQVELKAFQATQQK
Assay: SET7 ELISA methylation assay
Type: biochemical
Details: comparison with parent analog, ELISA 40 µM (Fig. 3)

SMILES	relative potency against SET7 (SAR, in words)
O=C(O)c1ccc(-c2cccc3c2ccn3-c2cccc(CNc3cccc(C(=O)O)c3)c2)cc1 [Compound 15, 3-(3-(4-(4-carboxyphenyl)-1H-indol-1-yl)benzylamino)benzoic acid]	greatly suppressed activity
O=C(O)c1cccc(SCc2cccc(-n3ccc4c(-c5ccccc5)cccc43)c2)c1 [Compound 13, 3-(3-(4-phenyl-1H-indol-1-yl)benzylthio)benzoic acid]	even more effective
O=C(O)CCCSCc1cccc(-n2ccc3cc(Br)ccc32)c1 [Compound 10, 4-(3-(5-bromo-1H-indol-1-yl)benzylthio)butanoic acid]	more potent inhibitors of SET7 than 7
O=C(O)c1cccc(SCc2cccc(-n3ccc4cc(Br)ccc43)c2)c1 [Compound 11, 3-(3-(5-bromo-1H-indol-1-yl)benzylthio)benzoic acid]	more potent inhibitors of SET7 than 7
O=C(O)c1cccc(SCc2cccc(-n3ccc4c(Br)cccc43)c2)c1 [Compound 12, 3-(3-(4-bromo-1H-indol-1-yl)benzylthio)benzoic acid]	increased potency

Same assay, conditions: read-out: inhibition of SET7

SMILES	inhibition at 40 µM [%]
O=C(O)c1cccc(NCc2cccc(-n3ccc4c(-c5ccccc5)cccc43)c2)c1 [Compound 14, 3-(3-(4-phenyl-1H-indol-1-yl)benzylamino)benzoic acid]	50 to 60
O=C(O)c1cccc(SCc2cccc(-n3ccc4c(-c5ccccc5)cccc43)c2)c1 [Compound 13, 3-(3-(4-phenyl-1H-indol-1-yl)benzylthio)benzoic acid]	50 to 60

Target: T1, SET7
Assay: SET7 scintillation proximity assay
Type: biochemical
Details: SPA, 50 µM and 15 µM inhibitor, comparison with 19 (Fig. 4)

SMILES	relative potency against SET7 (SAR, in words)
O=C(O)c1cccc(CNc2cccc(-n3ccc4c(-c5ccc(C(F)(F)F)cc5)ncnc43)c2)c1 [Compound 25]	reduced inhibitor potency
O=C(O)c1cccc(NCc2ccc(-n3ccc4c(-c5ccc(C(F)(F)F)cc5)ncnc43)s2)c1 [Compound 26]	reduced inhibitor potency
